Data reported in ChEMBL document CHEMBL1201862, “PubChem BioAssay data set” (2004).
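Tested at 5 concentrations; 48 h exposure; 96-well plates; endpoints linearly interpolated, else capped at highest concentration. The concentration for 50% growth inhibition is given as GI50.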 Active and inactive are the calls of the source. Rule as the data show it: active = GI50 up to about 1.1 µM and inactive = higher.

Legend:
Assay in all cases: DTP human tumour cell line panel, 48 h
SK-MEL-28 = system: SK-MEL-28
OVCAR-4 = system: OVCAR-4
SR = system: SR
EKVX = system: EKVX
HCT-15 = system: HCT-15
OVCAR-3 = system: OVCAR-3
UO-31 = system: UO-31
K562 = system: K562
HT-29 = system: HT-29
SN12C = system: SN12C
OVCAR-8 = system: OVCAR-8
ACHN = system: ACHN
IGROV-1 = system: IGROV-1
HOP-62 = system: HOP-62
HOP-92 = system: HOP-92
SNB-19 = system: SNB-19
SF-295 = system: SF-295
NCI-H522 = system: NCI-H522
T47D = system: T47D
MCF7 = system: MCF7

SMILES	GI50 (SK-MEL-28)	GI50 (OVCAR-4)	GI50 (SR)	GI50 (EKVX)	GI50 (HCT-15) [µM]	GI50 (OVCAR-3)	GI50 (UO-31)	GI50 (K562)	GI50 (HT-29)	GI50 (SN12C)	GI50 (OVCAR-8)	GI50 (ACHN)	GI50 (IGROV-1)	GI50 (HOP-62)	GI50 (HOP-92)	GI50 (SNB-19)	GI50 (SF-295)	GI50 (NCI-H522)	GI50 (T47D)	GI50 (MCF7)
O=C1OC(c2ccccc2)=N/C1=C/NC(Cc1c[nH]c2ccccc12)C(=O)O (stereo not drawn)	> 100 µM (inactive)	> 100 µM (inactive)	> 100 µM (inactive)	> 100 µM (inactive)	> 100	> 100 µM (inactive)	> 100 µM (inactive)	> 100 µM (inactive)	> 100 µM (inactive)	> 100 µM (inactive)	> 100 µM (inactive)	> 100 µM (inactive)	> 100 µM (inactive)	> 100 µM (inactive)	> 100 µM (inactive)	> 100 µM (inactive)	> 100 µM (inactive)	68.4 µM (inactive)		
CC/C(SC)=[N+](\C)[O-]	> 100 µM (inactive)	> 100 µM (inactive)	25.8 µM (inactive)	> 100 µM (inactive)	57.9	> 100 µM (inactive)	> 100 µM (inactive)	44.2 µM (inactive)	> 100 µM (inactive)	> 100 µM (inactive)	> 100 µM (inactive)	> 100 µM (inactive)	> 100 µM (inactive)	> 100 µM (inactive)	> 100 µM (inactive)	> 100 µM (inactive)	> 100 µM (inactive)	> 43.1 µM (inactive)		
CC1=NOC(=O)/C1=C/c1ccc([N+](=O)[O-])cc1	> 100 µM (inactive)	> 100 µM (inactive)	> 100 µM (inactive)	> 100 µM (inactive)	> 100	> 100 µM (inactive)	> 100 µM (inactive)	> 100 µM (inactive)	> 100 µM (inactive)	> 100 µM (inactive)	> 100 µM (inactive)	> 100 µM (inactive)	> 100 µM (inactive)	> 100 µM (inactive)	> 100 µM (inactive)	> 100 µM (inactive)	> 100 µM (inactive)	> 100 µM (inactive)		
CC(C)(C)/N=C/N1C=Cc2nc3ccccc3cc2C1	> 100 µM (inactive)	> 100 µM (inactive)	> 100 µM (inactive)	> 100 µM (inactive)	57.1	> 100 µM (inactive)	> 100 µM (inactive)	> 100 µM (inactive)	> 100 µM (inactive)	> 100 µM (inactive)	> 100 µM (inactive)	> 100 µM (inactive)	> 100 µM (inactive)	> 100 µM (inactive)	> 100 µM (inactive)	> 100 µM (inactive)	> 100 µM (inactive)	> 100 µM (inactive)		
N#C/C(=C/C=C/c1ccco1)C(N)=O	> 10 µM (inactive)			> 10 µM (inactive)	> 10	> 10 µM (inactive)	> 10 µM (inactive)		> 10 µM (inactive)	> 10 µM (inactive)	> 10 µM (inactive)	> 10 µM (inactive)	> 10 µM (inactive)	> 10 µM (inactive)			> 10 µM (inactive)	> 10 µM (inactive)	> 10 µM (inactive)	> 10 µM (inactive)
Cn1c(=N)n[n+]([O-])c2ccccc21		1.94 µM (inactive)		9.93 µM (inactive)		1.55 µM (inactive)	5.16 µM (inactive)	1.36 µM (inactive)	3.1 µM (inactive)	2.13 µM (inactive)	13.2 µM (inactive)	5.48 µM (inactive)	3.46 µM (inactive)	2.52 µM (inactive)	23.7 µM (inactive)		3.54 µM (inactive)	2.86 µM (inactive)		1.8 µM (inactive)
Cc1ccc(NCC2(/N=C/c3ccccc3)OC(CO)C(O)C2O)cc1 (stereo not drawn)	62.5 µM (inactive)	60.1 µM (inactive)	27.1 µM (inactive)		26.5	41.7 µM (inactive)	61.7 µM (inactive)	27.9 µM (inactive)	35.8 µM (inactive)		> 100 µM (inactive)	74.3 µM (inactive)	> 100 µM (inactive)	12.4 µM (inactive)	64 µM (inactive)	> 100 µM (inactive)	24.3 µM (inactive)	37.5 µM (inactive)		
O=S1(=O)C(=C(c2ccccc2)c2ccccc2)S(=O)(=O)c2ccccc21	> 100 µM (inactive)	83.6 µM (inactive)		> 100 µM (inactive)	> 100	> 57.9 µM (inactive)	> 100 µM (inactive)	> 100 µM (inactive)	> 100 µM (inactive)	> 100 µM (inactive)	> 100 µM (inactive)		> 95.5 µM (inactive)	23.2 µM (inactive)	20.6 µM (inactive)	> 58.1 µM (inactive)	33.8 µM (inactive)	> 100 µM (inactive)		7.46 µM (inactive)
O=C1C2C3C=CC(C2C(=O)N1CO)C1C2C(=O)N(CO)C(=O)C2C31 (stereo not drawn)	> 84.1 µM (inactive)	> 45.8 µM (inactive)	22.5 µM (inactive)	> 100 µM (inactive)	37	> 92.9 µM (inactive)	> 100 µM (inactive)	> 48.6 µM (inactive)	92.5 µM (inactive)	> 69.8 µM (inactive)	36.4 µM (inactive)	> 44.9 µM (inactive)	> 100 µM (inactive)	> 100 µM (inactive)	> 100 µM (inactive)	> 100 µM (inactive)	> 100 µM (inactive)	> 100 µM (inactive)		
